Source: ChEMBL document CHEMBL1155158, “Early bactericidal activity of high-dose rifampin in patients with pulmonary tuberculosis evidenced by positive sputum smears” (Antimicrob Agents Chemother, 2007)

Assays:
Homo sapiens [1] = assay: AUC (0 to infinity) in Mycobacterium tuberculosis infected patient at 6 mg/kg; assay type: ADME, organism-based, Plasma; design: time infinity, dose 6 mg/kg; details: in vivo
[2] = Tmax in Mycobacterium tuberculosis infected patient at 20 mg/kg, po administered daily for 5 days; assay type: ADME, organism-based; design: dose 20 mg/kg, route oral; details: human, in vivo
clinical [3] = details: human, in vivo, 3 mg/kg
Description: Cmax in Mycobacterium tuberculosis infected patient at 3 mg/kg

[4] = test system: Mycobacterium tuberculosis; assay: Antimycobacterial activity against Mycobacterium tuberculosis infected patient assessed as sputum bacterial count at 20 mg/kg, po administered daily for 2 days; assay type: functional
[5] = test system: Mycobacterium tuberculosis; assay: Antimycobacterial activity against Mycobacterium tuberculosis infected patient assessed as sputum bacterial count at 600 mg, po after 2 days; assay type: functional
[6] = Tmax in Mycobacterium tuberculosis infected patient at 3 mg/kg; assay type: ADME, organism-based; design: dose 3 mg/kg; details: human, in vivo
[7] = test system: Mycobacterium tuberculosis; assay: Antimycobacterial activity against Mycobacterium tuberculosis infected patient assessed as sputum bacterial count at 20 mg/kg, po administered daily for 5 days; assay type: functional
Homo sapiens [8] = assay: AUC (0 to infinity) in Mycobacterium tuberculosis infected patient at 3 mg/kg; assay type: ADME, organism-based, Plasma; design: time infinity, dose 3 mg/kg; details: in vivo
clinical [9] = details: human, in vivo, 12 mg/kg
Description: Cmax in Mycobacterium tuberculosis infected patient at 12 mg/kg

clinical [10] = details: human, in vivo, po, 20 mg/kg
Description: Cmax in Mycobacterium tuberculosis infected patient at 20 mg/kg, po administered daily for 5 days

[11] = Tmax in Mycobacterium tuberculosis infected patient at 12 mg/kg; assay type: ADME, organism-based; design: dose 12 mg/kg; details: human, in vivo
clinical [12] = details: human, in vivo, 6 mg/kg
Description: Cmax in Mycobacterium tuberculosis infected patient at 6 mg/kg

[13] = Tmax in Mycobacterium tuberculosis infected patient at 6 mg/kg; assay type: ADME, organism-based; design: dose 6 mg/kg; details: human, in vivo

Question: With `CO[C@H]1/C=C/O[C@@]2(C)Oc3c(C)c(O)c4c(O)c(c(/C=N/N5CCN(C)CC5)c(O)c4c3C2=O)NC(=O)/C(C)=C\C=C\[C@H](C)[C@H](O)[C@@H](C)[C@@H](O)[C@@H](C)[C@H](OC(C)=O)[C@@H]1C` [RIFAMPIN] as the compound, how does the AUC (Homo sapiens [1]) read?
Answer: Its AUC is 24.5 µg/mL.

Question: What about the Tmax [2] of the same compound?
Answer: The Tmax was 3.27 h.

Question: And the Cmax (clinical [3])?
Answer: Its Cmax is 2530 ng/mL.

Question: What about the log10CFU/ml [4] of the same compound?
Answer: Its log10CFU/ml is 0.44.

Question: What about the log10CFU/ml [5] of the same compound?
Answer: Its log10CFU/ml is 0.221.

Question: And the Tmax [6]?
Answer: The Tmax was 3.12 h.

Question: And the log10CFU/ml [7]?
Answer: Its log10CFU/ml is 0.3.

Question: What about the AUC (Homo sapiens [8]) of the same compound?
Answer: Its AUC is 13.1 µg/mL.

Question: What about the Cmax (clinical [9]) of the same compound?
Answer: Its Cmax is 13000 ng/mL.

Question: What about the Cmax at 120 h (clinical [10]) of the same compound?
Answer: Its Cmax at 120 h is 14000 ng/mL.

Question: And the Tmax [11]?
Answer: The Tmax was 2.5 h.

Question: What about the Cmax (clinical [12]) of the same compound?
Answer: The Cmax was 3190 ng/mL.

Question: And the Tmax [13]?
Answer: Its Tmax is 3.67 h.
